{"source": "paper PMC6981581", "about": "“N-(2-Arylmethylthio-4-Chloro-5-Methylbenzenesulfonyl)amide Derivatives as Potential Antimicrobial Agents—Synthesis and Biological Studies” (International Journal of Molecular Sciences, 2019)", "key": {"[1]": {"tested_on": "Candida albicans ATCC 10231", "assay": "Broth dilution MIC/MFC, reference fungal strain", "assay_type": "cell-based", "procedure,_shortened": "(§1)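 Inhibitory and cidal endpoints rely on a serial dilution method run in triplicate. Growth inhibition is scored after 18 h at 37 °C (5 × 10^5 cfu/mL, MHB2), and cidal values after transfer to TSA with 48 h further incubation.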"}, "[2]": {"tested_on": "S.aureus 54 (MRSA)", "assay": "Broth dilution MIC/MBC, clinical MRSA isolate", "assay_type": "cell-based", "conditions": "Staphylococcus aureus, clinical MRSA S.aureus 54", "excerpt": "(§2) […]. Both MRSA and MSSA strains were derived from various human infections.\n(§3) […]. Five methicillin-resistant S. aureus strains were isolated from nose (n = 1), bronchoalveolar lavage (n = 1), sputum (n = 1), wound (n = 1), and blood (n = 1); five methicillin-susceptible S. aureus strains were isolated from throat (n = 1), bronchoalveolar lavage (n = 1), sputum (n = 1), abscess (n = 1), and blood (n = 1).\n(§4) The identity of S. aureus isolates was confirmed with conventional methods and with Pastorex Staph-Plus latex agglutination kit (Bio-Rad, Marnes-la-Coquette, France) and verified applying the polymerase chain reaction (PCR) of S. aureus-specific region of the thermonuclease gene, nuc. Resistance to methicillin was first verified using cefoxitin disk (30 µg), and then, identified based on the presence of mecA gene. S. aureus ATCC®25923 (methicillin-susceptible) and S. aureus ATCC®43300 (MDR) were applied as the reference strains. Both the reference and clinical strains were stored at −80 °C, in Tryptic Soy Broth (TSB, Becton-Dickinson, Franklin Lakes, NJ, USA) supplemented with 15% glycerol.\n(§5) A broth dilution method was used to determine minimal inhibitory concentration (MIC) for tested compounds as recommended by Clinical Laboratory Standards Institute (CLSI) guidelines. Investigated compounds were diluted in Mueller Hinton Broth 2 (Sigma-Aldrich Co., St. Louis, MO, USA) in polypropylene 96-well plates and initial inoculum 5 × 10^5 cfu/mL were incubated at 37 °C for 18 h. MIC was taken as the lowest drug concentration at which an observable growth was inhibited. […] The loopful (10 µL) of the tested sample was transferred to Tryptic Soy Agar (TSA, Becton-Dickinson, Franklin Lakes, NJ, USA) and incubated at 37 °C for 48 h. […] Drug Solutions were made fresh on the day of the assay. All experiments were performed in triplicate."}, "[3]": {"tested_on": "S.aureus 50 (MRSA)", "assay": "Broth dilution MIC/MBC, clinical MRSA isolate", "assay_type": "cell-based", "conditions": "Staphylococcus aureus, clinical MRSA S.aureus 50", "excerpt": "as §2, §3, §4, §5"}, "[4]": {"tested_on": "S.aureus 53 (MRSA)", "assay": "Broth dilution MIC/MBC, clinical MRSA isolate", "assay_type": "cell-based", "conditions": "Staphylococcus aureus, clinical MRSA S.aureus 53", "excerpt": "as §2, §3, §4, §5"}, "[5]": {"tested_on": "S.aureus 52 (MRSA)", "assay": "Broth dilution MIC/MBC, clinical MRSA isolate", "assay_type": "cell-based", "conditions": "Staphylococcus aureus, clinical MRSA S.aureus 52", "excerpt": "as §2, §3, §4, §5"}, "[6]": {"tested_on": "S.aureus 51 (MRSA)", "assay": "Broth dilution MIC/MBC, clinical MRSA isolate", "assay_type": "cell-based", "conditions": "Staphylococcus aureus, clinical MRSA S.aureus 51", "excerpt": "as §2, §3, §4, §5"}, "[7]": {"tested_on": "clinical isolates of methicillin-resistant S. aureus (50–54) and methicillin-sensitive S. aureus (55–59)", "assay": "Broth dilution MIC/MBC, summary over clinical S. aureus isolates", "assay_type": "cell-based, Staphylococcus aureus", "excerpt": "as §2, §3, §4, §5"}, "[8]": {"tested_on": "HaCaT cell line (human keratinocyte)", "assay": "MTT cell viability assay", "assay_type": "cell-based", "conditions": "MTT assay, 72 h incubation, mean ± SD, read-out: IC50 HaCaT"}, "[9]": {"tested_on": "Staphylococcus aureus ATCC 6538 (MSSA)", "assay": "Broth dilution MIC/MBC, reference strain", "assay_type": "cell-based", "procedure,_shortened": "as §1"}, "[10]": {"tested_on": "Enterococcus faecalis ATCC 11420", "assay": "Broth dilution MIC/MBC, reference strain", "assay_type": "cell-based", "procedure,_shortened": "as §1"}, "[11]": {"tested_on": "Pseudomonas aeruginosa ATCC 15442", "assay": "Broth dilution MIC/MBC, reference strain", "assay_type": "cell-based", "procedure,_shortened": "as §1"}, "[12]": {"tested_on": "Proteus vulgaris NCTC 4635", "assay": "Broth dilution MIC/MBC, reference strain", "assay_type": "cell-based", "procedure,_shortened": "as §1"}, "[13]": {"tested_on": "Staphylococcus aureus ATCC 43300 (MRSA)", "assay": "Broth dilution MIC/MBC, reference strain", "assay_type": "cell-based", "procedure,_shortened": "as §1"}, "[14]": {"tested_on": "Staphylococcus epidermidis PCM 2118", "assay": "Broth dilution MIC/MBC, reference strain", "assay_type": "cell-based", "procedure,_shortened": "as §1"}, "[15]": {"tested_on": "Escherichia coli ATCC 11229", "assay": "Broth dilution MIC/MBC, reference strain", "assay_type": "cell-based", "procedure,_shortened": "as §1"}}, "note": "Where “and” joins values, the source holds several entries; their conditions need not be identical. Identical values can stand only once. Like-named read-outs stand apart in the source and are kept apart here.", "data": [{"smiles": "Cc1cc(S(=O)(=O)NC(=O)CCC2CCCCC2)c(SCc2cccc(C(F)(F)F)c2)cc1Cl", "note": "[Compound 10, N-[4-Chloro-5-methyl-2-(3-trifluoromethylbenzylthio)benzenesulfonyl]-3-cyclohexylpropanamide]", "values": [{"measurement": "MFC/MIC", "setting": "[1]; C. a. ATCC 10231", "value": 2}, {"measurement": "MFC", "setting": "[1]; Candida albicans, ATCC10231, C. albicans ATCC 10231, read-out: MFC", "value": 128, "unit": "µg/mL"}, {"measurement": "MIC", "setting": "[1]; Candida albicans, ATCC10231, C. albicans ATCC 10231, read-out: MIC", "value": 64, "unit": "µg/mL"}, {"measurement": "MBC", "setting": "[2]; read-out: MBC", "value": "> 128", "unit": "µg/mL"}, {"measurement": "MIC", "setting": "[2]; read-out: MIC", "value": 4, "unit": "µg/mL"}, {"measurement": "MBC", "setting": "[3]; read-out: MBC", "value": "> 128", "unit": "µg/mL"}, {"measurement": "MIC", "setting": "[3]; read-out: MIC", "value": 4, "unit": "µg/mL"}, {"measurement": "MBC", "setting": "[4]; read-out: MBC", "value": "> 128", "unit": "µg/mL"}, {"measurement": "MIC", "setting": "[4]; read-out: MIC", "value": 4, "unit": "µg/mL"}, {"measurement": "MBC", "setting": "[5]; read-out: MBC", "value": "> 128", "unit": "µg/mL"}, {"measurement": "MIC", "setting": "[5]; read-out: MIC", "value": 4, "unit": "µg/mL"}, {"measurement": "MBC", "setting": "[6]; read-out: MBC", "value": "> 128", "unit": "µg/mL"}, {"measurement": "MIC", "setting": "[6]; read-out: MIC", "value": 4, "unit": "µg/mL"}, {"measurement": "MIC", "setting": "[7]; Staphylococcus aureus, reference MRSA and MSSA strains as well as clinical isolates, read-out: MIC", "value": "4 to 8", "unit": "µg/mL"}, {"measurement": "MBC", "setting": "[7]; Staphylococcus aureus, summary over ten clinical MRSA and MSSA isolates (Table 4), read-out: MBC", "value": "> 128", "unit": "µg/mL"}, {"measurement": "MIC", "setting": "[7]; Staphylococcus aureus, summary over ten clinical MRSA and MSSA isolates (Table 4), read-out: MIC", "value": 4, "unit": "µg/mL"}, {"measurement": "MIC", "setting": "[7]; summary over ten clinical MRSA and MSSA isolates (Table 4)", "value": "4 to 8", "unit": "µg/mL"}, {"measurement": "IC50", "setting": "[8]", "value": "95 µg/mL and 178 µM"}, {"measurement": "MBC/MIC", "setting": "[9]; S. a. ATCC 6538", "value": 8}, {"measurement": "MBC", "setting": "[9]; Staphylococcus aureus, S. aureus ATCC 6538, read-out: MBC", "value": 64, "unit": "µg/mL"}, {"measurement": "MIC", "setting": "[9]; Staphylococcus aureus, S. aureus ATCC 6538, read-out: MIC", "value": 8, "unit": "µg/mL"}, {"measurement": "MBC/MIC", "setting": "[10]; E. f. ATCC 11420", "value": 8}, {"measurement": "MBC", "setting": "[10]; Enterococcus faecalis, ATCC11420, E. faecalis ATCC 11420, read-out: MBC", "value": 64, "unit": "µg/mL"}, {"measurement": "MIC", "setting": "[10]; Enterococcus faecalis, ATCC11420, E. faecalis ATCC 11420, read-out: MIC", "value": 8, "unit": "µg/mL"}, {"measurement": "MBC/MIC", "setting": "[11]; P. a. ATCC 15442", "value": ">1"}, {"measurement": "MBC", "setting": "[11]; Pseudomonas aeruginosa, ATCC15442, P. aeruginosa ATCC 15442, read-out: MBC", "value": "> 128", "unit": "µg/mL"}, {"measurement": "MIC", "setting": "[11]; Pseudomonas aeruginosa, ATCC15442, P. aeruginosa ATCC 15442, read-out: MIC", "value": 128, "unit": "µg/mL"}, {"measurement": "MBC/MIC", "setting": "[12]; P. v. NCTC 4635", "value": ">1"}, {"measurement": "MBC", "setting": "[12]; Proteus vulgaris, NCTC4635, P. vulgaris NCTC 4635, read-out: MBC", "value": "> 128", "unit": "µg/mL"}, {"measurement": "MIC", "setting": "[12]; Proteus vulgaris, NCTC4635, P. vulgaris NCTC 4635, read-out: MIC", "value": 128, "unit": "µg/mL"}, {"measurement": "MBC/MIC", "setting": "[13]; S. a. ATCC 43300", "value": 2}, {"measurement": "MBC", "setting": "[13]; Staphylococcus aureus, S. aureus ATCC 43300, read-out: MBC", "value": 16, "unit": "µg/mL"}, {"measurement": "MIC", "setting": "[13]; Staphylococcus aureus, S. aureus ATCC 43300, read-out: MIC", "value": 8, "unit": "µg/mL"}, {"measurement": "MBC/MIC", "setting": "[14]; S. e. PCM 2118", "value": 1}, {"measurement": "MBC", "setting": "[14]; S. epidermidis PCM 2118", "value": 8, "unit": "µg/mL"}, {"measurement": "MBC", "setting": "[14]; Staphylococcus epidermidis, PCM2118, S. epidermidis PCM 2118, read-out: MBC", "value": "4 to 16", "unit": "µg/mL"}, {"measurement": "MIC", "setting": "[14]; Staphylococcus epidermidis, PCM2118, S. epidermidis PCM 2118, read-out: MIC", "value": 8, "unit": "µg/mL"}, {"measurement": "MBC/MIC", "setting": "[15]; E. c. ATCC 11229", "value": ">1"}, {"measurement": "MBC", "setting": "[15]; Escherichia coli, ATCC11229, E. coli ATCC 11229, read-out: MBC", "value": "> 128", "unit": "µg/mL"}, {"measurement": "MIC", "setting": "[15]; Escherichia coli, ATCC11229, E. coli ATCC 11229, read-out: MIC", "value": 128, "unit": "µg/mL"}]}]}
